Laboratory results as given in paper PMC7408072 (Pharmaceutics, 2020).
Peptide text beside a SMILES is read from it. * marks the point of attachment. 5TAMRA = CN(C)c1ccc2c(c1)Oc1cc(N(C)C)ccc1C21OC(=O)c2cc(C(=O)*)ccc21

Key:
[1] = Peptide stability in serum-containing cell media; format: in vitro ADME, bovine; settings: differentiation medium with 10% FBS, 37 °C, 100 µM peptide, urea/TCA-acetone protein precipitation, UPLC C18, UV 214 and 498 nm, mean ± SD, N = 2
Description: Samples (20 µL) were withdrawn at 0, 15, 30, 60, 120, 180, and 240 min. At room temperature, 50 µL of 6 M urea was added for 10 min to denature plasma proteins. To precipitate plasma proteins, 50 µL of 20% (w/v) trichloroacetic acid in acetone was added and the sample incubated at −20 °C for 10 min. The samples were spun down at 10,000× g for 5 min at 5 °C. The acetone phase containing the TAMRA-peptides was filtered (pore size 0.22 µm) prior to analysis by UPLC using a Waters Acquity system with a C18 BEH reverse phase column (BEH C18 column, 2.1 mm × 50 mm × 1.7 µm). Mobile phase A consisted of 95% ultrapure water and 5% acetonitrile (ACN) with 0.1% trifluoroacetic acid (TFA) and mobile phase B of 95% ACN and 5% ultrapure water with 0.1% TFA. A linear gradient was used (min/%B): 0/5%, 12/45%, 12.1/100%, 13/100%, 13.1/5%, 15/5%, with a flow rate of 0.45 mL/min over 15 min with UV detection at 214 and 498 nm. Lower limits of detection are 6.2 µM for TAMRA-NR2B9c, 0.8 µM for TAMRA-Tat, 1.6 µM for TAMRA-Tat-NR2B9c, and 1.6 µM for TAMRA-Tat-N-dimer.

[2] = system: blood–brain barrier; test: In vivo two-photon imaging of BBB permeation; settings: 3 nmol peptide/g body weight via femoral artery, 1 h, mean ± SEM, N = 5; for BBB permeation: AUC of change in TAMRA fluorescence in the brain parenchyma: anesthetized C57BL/6 mice, two-photon imaging; for clearance: AUC of decreased fluorescence in the blood stream: blood vessel ROIs
Description: Animals and operational procedure: We used 12–14-week-old C57BL/6 mice (24–26 g) and performed the surgical procedures as described previously. Anesthesia was induced by intraperitoneal (i.p.) injection of xylazine (10 mg/kg body weight; ScanVet, Fredensborg, Denmark) and ketamine (60 mg/kg body weight; MSD Animal Health, København, Denmark), and maintained by supplementary i.p. injections of ketamine (30 mg/kg body weight) every 20–25 min. The trachea was surgically exposed, and a custom-made metal tube inserted into the trachea lumen for mechanical respiration (180–220 μL volume; 190–240 strokes/min) with oxygen-supplemented air (1.5–2 mL/min) using a MiniVent Type 845 ventilator (Harvard Apparatus, Holliston, MA, USA). Catheters were inserted into the femoral vein and the femoral artery. The incisions were closed with surgical staples. After cannulation, the animal was placed in a prone position. The scalp was removed and FeCl3 (0.62 M) administered to clean off the periosteum. The exposed skull was subsequently washed with saline, dried, and attached to a custom-made metal plate using a cyanoacrylate gel (Henkel’s LOCTITE®, Düsseldorf, Germany). The animal head was mounted onto the imaging stage insert and craniotomy performed using a dental drill (7000 rpm; 4 mm lateral and 1 mm posterior to bregma, Ø = 3 mm). The bone flap and dura were carefully removed, and the surface of the brain gently washed with artificial cerebrospinal fluid (120 mM NaCl, 2.8 mM KCl, 1 mM Na2HPO4, 0.876 mM MgCl2, 22 mM NaHCO3, 1.45 mM CaCl2, 2.55 mM glucose, pH 7.4, 37 °C, 5% CO2). We applied 1% type III-A agarose to the brain surface, and a Menzel glass coverslip (4 × 4 mm, 0.08-mm thick; Thermo Fischer Scientific, Bedford, MA, USA) was positioned to seal the major part of the craniotomy, leaving only an opening for the glass microelectrode used in the electrophysiological assessment. The mouse was transferred to the imaging stage. Following the insertion of the glass microelectrode, the anesthesia was switched to α-chloralose administered intravenously at a constant flow of 50 mg/kg body weight/hour. The mouse was left for 25 min for anesthesia equilibration before imaging. During all procedures, the animal was maintained at 37 °C using a YSI-451rectal thermistor probe (E-Z Systems, Palmer, PA, USA) with a TC-1000 Mouse Proportional controlling unit connected to a heating pad (08-13013; CWE Incorporated, Palmer, PA, USA). To ensure optimal animal physiology and level of anesthesia, end-tidal respiratory CO2 was measured using a Capnograph Type 340 (Harvard Apparatus, Holliston, MA, USA), and mean arterial blood pressure was monitored using a BP-1 pressure monitor (World Precision Instruments, Sarasota, FL, USA).
Imaging of BBB permeation: TAMRA-Tat, TAMRA-Tat-NR2B9c, and TAMRA-Tat-N-dimer were administered as 60 µL bolus injections via the catheter inserted into the femoral artery (3 nmol/g body weight). […] The imaging was performed using an SP5 upright laser scanning microscope equipped with a 20 × 1.0 N.A. water-immersion objective (Leica Microsystems, Wetzlar, Germany). Images were obtained in a hyperstack mode, i.e., in a series of Z-stacks in 1-min intervals. Each Z-stack underwent a reduction of dimensionality (maximum signal intensity projection along the Z-axis). TAMRA and FITC were excited with a Millennia Pro MaiTai HP Ti:Sapphire two-photon laser (Spectra Physics, Santa Clara, CA, USA) tuned to 870 nm. The signal was acquired by two multi-alkali NDD photomultipliers after 525–560 and 560–625 nm band pass filters for FITC-dx and TAMRA fluorescence, respectively. Data were exported from LAS AF software (v. 4.4, Leica Microsystems, Wetzlar, Germany) to ImageJ v. 1.48u4 (NIH).

| SMILES | % of the initial concentration remaining after 4 h of incubation in serum-supplemented cell media [1] | BBB permeation: AUC of change in TAMRA fluorescence in the brain parenchyma [2] [F/F0 min] | clearance: AUC of decreased fluorescence in the blood stream [2] [F/F0 min] |
| --- | --- | --- | --- |
| CC[C@H](C)[C@H](NC(=O)[C@H](CO)NC(=O)[C@H](CO)NC(=O)[C@H](CC(C)C)NC(=O)[C@H](CCCCN)NC(=O)c1ccc2c(c1)C(=O)OC21c2ccc(N(C)C)cc2Oc2cc(N(C)C)ccc21)C(=O)N[C@@H](CCC(=O)O)C(=O)N[C@@H](CO)C(=O)N[C@@H](CC(=O)O)C(=O)N[C@H](C(=O)O)C(C)C [TAMRA-NR2B9c] (5TAMRA-KLSSIESDV-OH) | 92.0% ± 12.6% | – | – |
| CC[C@H](C)[C@H](NC(=O)CCOCCOCCN(CCOCCOCCC(=O)N[C@H](C(=O)N[C@@H](CCC(=O)O)C(=O)N[C@H](C(=O)N[C@@H](CC(=O)O)C(=O)N[C@H](C(=O)O)C(C)C)[C@@H](C)O)[C@@H](C)CC)C(=O)[C@H](CCCNC(=N)N)NC(=O)[C@H](CCCNC(=N)N)NC(=O)[C@H](CCCNC(=N)N)NC(=O)[C@H](CCC(N)=O)NC(=O)[C@H](CCCNC(=N)N)NC(=O)[C@H](CCCNC(=N)N)NC(=O)[C@H](CCCCN)NC(=O)[C@H](CCCCN)NC(=O)[C@H](CCCNC(=N)N)NC(=O)CNC(=O)[C@H](Cc1ccc(O)cc1)NC(=O)c1ccc2c(c1)C(=O)OC21c2ccc(N(C)C)cc2Oc2cc(N(C)C)ccc21)C(=O)N[C@@H](CCC(=O)O)C(=O)N[C@H](C(=O)N[C@@H](CC(=O)O)C(=O)N[C@H](C(=O)O)C(C)C)[C@@H](C)O [TAMRA-Tat-N-dimer] | 88.1% ± 1.8% | 6.90 ± 3.90 | −15.02 ± 0.55 |
| CC[C@H](C)[C@H](NC(=O)[C@H](CO)NC(=O)[C@H](CO)NC(=O)[C@H](CC(C)C)NC(=O)[C@H](CCCCN)NC(=O)[C@H](CCCNC(=N)N)NC(=O)[C@H](CCCNC(=N)N)NC(=O)[C@H](CCCNC(=N)N)NC(=O)[C@H](CCC(N)=O)NC(=O)[C@H](CCCNC(=N)N)NC(=O)[C@H](CCCNC(=N)N)NC(=O)[C@H](CCCCN)NC(=O)[C@H](CCCCN)NC(=O)[C@H](CCCNC(=N)N)NC(=O)CNC(=O)[C@H](Cc1ccc(O)cc1)NC(=O)c1ccc2c(c1)C(=O)OC21c2ccc(N(C)C)cc2Oc2cc(N(C)C)ccc21)C(=O)N[C@@H](CCC(=O)O)C(=O)N[C@@H](CO)C(=O)N[C@@H](CC(=O)O)C(=O)N[C@H](C(=O)O)C(C)C [TAMRA-Tat-NR2B9c] (5TAMRA-YGRKKRRQRRRKLSSIESDV-OH) | 34.3% ± 1.7% | 5.54 ± 2.95 | −4.97 ± 1.26 |
| CN(C)c1ccc2c(c1)Oc1cc(N(C)C)ccc1C21OC(=O)c2cc(C(=O)N[C@@H](Cc3ccc(O)cc3)C(=O)NCC(=O)N[C@@H](CCCNC(=N)N)C(=O)N[C@@H](CCCCN)C(=O)N[C@@H](CCCCN)C(=O)N[C@@H](CCCNC(=N)N)C(=O)N[C@@H](CCCNC(=N)N)C(=O)N[C@@H](CCC(N)=O)C(=O)N[C@@H](CCCNC(=N)N)C(=O)N[C@@H](CCCNC(=N)N)C(=O)N[C@@H](CCCNC(=N)N)C(=O)O)ccc21 [TAMRA-Tat] | 56.0% ± 8.9% | 32.21 ± 10.17 | −17.85 ± 1.71 |
